Measurements taken from ChEMBL document CHEMBL1201862, “PubChem BioAssay data set” (2004).
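Five concentrations, 48 hours, 96-well plates. GI50 = concentration required for 50% inhibition of growth.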 Active and inactive are the calls of the source. No stated cut-off is given here; in the data, active = GI50 up to about 1.1 µM and inactive = higher.

How the values were obtained:
Test in all cases: inhibition of tumour cell growth, NCI panel, 48 h
RXF 393 = tested on: RXF 393
MOLT-4 = tested on: MOLT-4
786-0 = tested on: 786-0
HCT-116 = tested on: HCT-116
NCI-H226 = tested on: NCI-H226
UACC-257 = tested on: UACC-257
SK-MEL-2 = tested on: SK-MEL-2
HOP-92 = tested on: HOP-92
HCT-15 = tested on: HCT-15
NCI-H23 = tested on: NCI-H23
UACC-62 = tested on: UACC-62
M14 = tested on: M14
SK-MEL-5 = tested on: SK-MEL-5
PC-3 = tested on: PC-3
HCC 2998 = tested on: HCC 2998
OVCAR-3 = tested on: OVCAR-3
MCF7 = tested on: MCF7
HOP-62 = tested on: HOP-62
SF-295 = tested on: SF-295
MDA-MB-231 = tested on: MDA-MB-231
UO-31 = tested on: UO-31
OVCAR-8 = tested on: OVCAR-8
HT-29 = tested on: HT-29
IGROV-1 = tested on: IGROV-1
SW-620 = tested on: SW-620
SNB-19 = tested on: SNB-19
SF-268 = tested on: SF-268
MDA-MB-435 = tested on: MDA-MB-435
T47D = tested on: T47D
COLO 205 = tested on: COLO 205
NCI/ADR-RES = tested on: NCI/ADR-RES
SN12C = tested on: SN12C
U-251 = tested on: U-251
DU-145 = tested on: DU-145
TK-10 = tested on: TK-10
Malme-3M = tested on: Malme-3M
A498 = tested on: A498
CAKI-1 = tested on: CAKI-1
SK-OV-3 = tested on: SK-OV-3
ACHN = tested on: ACHN
SF-539 = tested on: SF-539
NCI-H522 = tested on: NCI-H522
HL-60 = tested on: HL-60
SK-MEL-28 = tested on: SK-MEL-28
MDA-N = tested on: MDA-N
Hs-578T = tested on: Hs-578T
KM12 = tested on: KM12
NCI-H460 = tested on: NCI-H460
OVCAR-5 = tested on: OVCAR-5
EKVX = tested on: EKVX
OVCAR-4 = tested on: OVCAR-4
RPMI-8226 = tested on: RPMI-8226
CCRF-CEM = tested on: CCRF-CEM
K562 = tested on: K562
A549 = tested on: A549
LOX IMVI = tested on: LOX IMVI
SNB-75 = tested on: SNB-75
BT-549 = tested on: BT-549
SR = tested on: SR

Measured: GI50

O=C1CCN/C(=N\C(=O)C(F)(F)F)N1CCc1c[nH]c2ccccc12
inactive: RXF 393 > 100 µM | MOLT-4 > 100 µM | 786-0 > 100 µM | HCT-116 > 100 µM | NCI-H226 > 100 µM | UACC-257 > 100 µM | SK-MEL-2 > 100 µM | HOP-92 > 100 µM | NCI-H23 > 100 µM | UACC-62 > 100 µM | M14 > 100 µM | SK-MEL-5 > 100 µM | PC-3 > 100 µM | HCC 2998 > 100 µM | OVCAR-3 > 100 µM | MCF7 > 100 µM | HOP-62 > 100 µM | SF-295 > 100 µM | MDA-MB-231 > 100 µM | UO-31 > 100 µM | OVCAR-8 > 100 µM | HT-29 > 100 µM | IGROV-1 > 100 µM | SW-620 > 100 µM | SNB-19 > 100 µM | SF-268 > 100 µM | MDA-MB-435 > 100 µM | T47D > 100 µM | COLO 205 > 100 µM | NCI/ADR-RES > 100 µM | SN12C > 100 µM | U-251 > 100 µM | DU-145 > 100 µM | TK-10 > 100 µM | Malme-3M > 100 µM | A498 > 100 µM | CAKI-1 > 100 µM | SK-OV-3 > 100 µM | ACHN > 100 µM | SF-539 > 100 µM | NCI-H522 > 100 µM | HL-60 > 100 µM | SK-MEL-28 > 100 µM | MDA-N > 100 µM | Hs-578T > 100 µM | KM12 > 100 µM | NCI-H460 > 100 µM | OVCAR-5 > 100 µM | EKVX > 100 µM | OVCAR-4 > 100 µM | RPMI-8226 > 100 µM | CCRF-CEM > 100 µM | K562 > 100 µM | A549 > 100 µM | LOX IMVI > 100 µM
> 100 µM: HCT-15

Cc1ccc(-c2c(C#N)c(S)n(NS(=O)(=O)c3ccc(C)cc3)c(=O)c2C#N)cc1
20.2 µM: HCT-15
inactive: RXF 393 23.5 µM | MOLT-4 24.2 µM | 786-0 29 µM | HCT-116 27 µM | NCI-H226 11.7 µM | UACC-257 40 µM | SK-MEL-2 23.3 µM | HOP-92 22.6 µM | NCI-H23 18.5 µM | UACC-62 28.5 µM | M14 31.3 µM | SK-MEL-5 21 µM | PC-3 22.8 µM | HCC 2998 5.19 µM | OVCAR-3 34.7 µM | MCF7 31.6 µM | SF-295 23.1 µM | MDA-MB-231 29.6 µM | UO-31 17.5 µM | OVCAR-8 21 µM | IGROV-1 16.7 µM | SW-620 19.9 µM | SNB-19 21.6 µM | MDA-MB-435 22.3 µM | COLO 205 30 µM | NCI/ADR-RES 32.8 µM | SN12C 31.5 µM | U-251 18.1 µM | DU-145 41.8 µM | TK-10 19.8 µM | SNB-75 14.3 µM | Malme-3M 3.56 µM | A498 33.7 µM | CAKI-1 28 µM | SK-OV-3 45 µM | ACHN 20.6 µM | SF-539 20.3 µM | NCI-H522 19.1 µM | HL-60 14.9 µM | SK-MEL-28 22 µM | MDA-N 35.6 µM | BT-549 16.6 µM | KM12 18 µM | OVCAR-5 27.4 µM | EKVX 23.6 µM | OVCAR-4 15.5 µM | SR 29.6 µM | RPMI-8226 24.7 µM | CCRF-CEM 8.02 µM | K562 35.8 µM | A549 39.2 µM | LOX IMVI 27.2 µM

COC(=O)C1(Cc2ccccc2)Cc2ccccc2C1
inactive: MOLT-4 14.8 µM | 786-0 22.7 µM | HCT-116 17.3 µM | NCI-H226 25.6 µM | UACC-257 24.4 µM | SK-MEL-2 11.5 µM | HOP-92 11.5 µM | NCI-H23 23.2 µM | UACC-62 21.5 µM | M14 17.1 µM | SK-MEL-5 15.7 µM | PC-3 29.7 µM | HCC 2998 29.6 µM | OVCAR-3 > 10 µM | MCF7 25.1 µM | HOP-62 32.1 µM | SF-295 36.5 µM | MDA-MB-231 32.7 µM | UO-31 7.73 µM | OVCAR-8 22.8 µM | HT-29 20.4 µM | IGROV-1 28.4 µM | SW-620 35 µM | SF-268 23.1 µM | MDA-MB-435 19.2 µM | T47D 21.5 µM | COLO 205 19.1 µM | NCI/ADR-RES 21.9 µM | SN12C 25.4 µM | U-251 25.8 µM | DU-145 30.8 µM | TK-10 21.2 µM | SNB-75 23.3 µM | Malme-3M 15.5 µM | CAKI-1 18.5 µM | SK-OV-3 39.6 µM | ACHN 18.7 µM | SF-539 50.9 µM | HL-60 14.3 µM | SK-MEL-28 26.9 µM | MDA-N 17.3 µM | Hs-578T 27.5 µM | KM12 21.8 µM | NCI-H460 25.5 µM | OVCAR-5 31.8 µM | EKVX 9.84 µM | OVCAR-4 22.4 µM | SR 24.4 µM | RPMI-8226 20.4 µM | CCRF-CEM 15.5 µM | K562 15.8 µM | A549 26.7 µM | LOX IMVI 20.5 µM
26.1 µM: HCT-15

Nn1c(S)nnc1C12CC3CC(CC(C3)C1)C2
inactive: RXF 393 > 100 µM | MOLT-4 > 100 µM | 786-0 > 100 µM | HCT-116 > 100 µM | NCI-H226 > 100 µM | SK-MEL-2 > 100 µM | HOP-92 > 100 µM | NCI-H23 > 100 µM | UACC-62 > 100 µM | M14 > 100 µM | SK-MEL-5 > 100 µM | PC-3 > 100 µM | HCC 2998 > 100 µM | OVCAR-3 > 100 µM | HOP-62 > 100 µM | SF-295 > 100 µM | MDA-MB-231 > 100 µM | UO-31 > 100 µM | HT-29 > 100 µM | IGROV-1 > 100 µM | SW-620 > 100 µM | SNB-19 > 100 µM | SF-268 > 100 µM | MDA-MB-435 > 100 µM | T47D > 100 µM | COLO 205 > 100 µM | NCI/ADR-RES > 100 µM | SN12C > 100 µM | U-251 > 100 µM | DU-145 > 100 µM | TK-10 > 100 µM | SNB-75 > 100 µM | Malme-3M > 100 µM | A498 > 100 µM | CAKI-1 > 100 µM | SK-OV-3 > 100 µM | ACHN > 100 µM | SF-539 > 100 µM | NCI-H522 > 100 µM | HL-60 > 100 µM | SK-MEL-28 > 100 µM | MDA-N > 100 µM | Hs-578T > 100 µM | KM12 > 100 µM | NCI-H460 > 100 µM | OVCAR-5 > 100 µM | EKVX > 100 µM | OVCAR-4 > 100 µM | SR > 100 µM | RPMI-8226 > 100 µM | CCRF-CEM > 100 µM | K562 > 100 µM | A549 > 100 µM | LOX IMVI > 100 µM
> 100 µM: HCT-15

CN(C)CC1COC2Cc3ccccc3C1O2 (stereo not given)
> 100 µM: HCT-15
inactive: RXF 393 > 100 µM | MOLT-4 > 100 µM | 786-0 > 100 µM | HCT-116 > 100 µM | NCI-H226 > 100 µM | UACC-257 > 100 µM | SK-MEL-2 > 100 µM | HOP-92 > 100 µM | NCI-H23 > 100 µM | M14 > 100 µM | SK-MEL-5 > 100 µM | PC-3 > 100 µM | HCC 2998 > 100 µM | OVCAR-3 > 100 µM | MCF7 > 100 µM | HOP-62 > 100 µM | SF-295 > 100 µM | MDA-MB-231 > 100 µM | UO-31 > 100 µM | OVCAR-8 > 100 µM | HT-29 > 100 µM | IGROV-1 > 100 µM | SNB-19 > 100 µM | SF-268 > 100 µM | MDA-MB-435 > 100 µM | T47D > 100 µM | COLO 205 > 100 µM | NCI/ADR-RES > 100 µM | SN12C > 100 µM | U-251 > 100 µM | DU-145 > 100 µM | TK-10 > 100 µM | Malme-3M > 100 µM | A498 > 100 µM | CAKI-1 > 100 µM | SK-OV-3 > 100 µM | ACHN > 100 µM | SF-539 > 100 µM | NCI-H522 > 100 µM | HL-60 72.6 µM | SK-MEL-28 > 100 µM | MDA-N > 100 µM | Hs-578T > 100 µM | KM12 > 100 µM | NCI-H460 > 100 µM | OVCAR-5 > 100 µM | EKVX > 100 µM | OVCAR-4 > 100 µM | SR > 100 µM | RPMI-8226 > 100 µM | CCRF-CEM > 100 µM | K562 > 100 µM | A549 > 100 µM | LOX IMVI > 100 µM

COc1ccc(Nc2nc3cc(N)cc(N)c3nc2-c2ccccc2)cc1
inactive: UACC-257 14.4 µM | HT-29 20.3 µM
